Results taken from patent US9687552B2, “Association of poly(N-acryloylglycinamide) with at least one active principle” (CENTRE NATIONAL DE LA RECHERCHE SCIENTIFIQUE, priority 2012, dated 2017).

Tests used:
[1] = release of drug models from PAG hydrogel into physiological serum at 37° C. (UV spectrometry); assay type: physicochemical
Description: 60 mg of PAG polymer of molecular mass equal to 170 000 g/mol are placed in contact with 1 mil of physiological serum (6% by mass) in a small, hermetically scaled cylindrical flask and heated at 60° C. for a few minutes to obtain a clear, homogeneous solution, which is gelled by cooling.
The cycle is repeated twice to perfect the homogeneity of the gel.
10 mg of the compound chosen as drug model are added. The mixture is heated to have a homogeneous solution, which is left to cool to obtain the compound-gel system.
The flask is placed in a mobile incubator at 37° C. after having added on top of the gel formed 1 ml of physiological serum, into which the compound trapped in the hydrogel gradually diffuses. The receiving medium is then renewed at regular intervals and the compound that has diffused is evaluated quantitatively by UV spectrometry. The curve of gradual release is plotted as a percentage of the amount initially placed in the gel.

[2] = system: tissues and organs of the intraperitoneal cavity in mice; test: delivery of methylene blue from PAG hydrogel to tissues and organs of the intraperitoneal cavity in mice; assay type: in vivo
Description: The delivery of the dye from the charged hydrogel to the tissues and organs of the intraperitoneal cavity in mice is observed.
To do this, an isotonic solution of PAG (molar mass equal to about 176 000 g/mol, 6% by weight of PAG) containing methylene blue (4 ml of solution (20 mg of dye) per 16 ml of gel) formed at 60° C. conditioned is introduced into heated syringes to be injected rapidly at 45° C. through a 23-gauge needle in order to fill the intraperitoneal cavity of the mice.
The mice treated according to the regulatory procedures were sacrificed after 2 hours, 8 hours, 24 hours, 30 hours and 52 hours (two animals per point).
After opening the abdomen, the distributions of the blue color in the gel, the tissues and the organs were assessed visually and compared at the same times with those observed for the control mice which received by similar injection an isotonic solution of the same concentration of methylene blue.

| time after which the blue color totally disappeared ([2]; control mice: isotonic solution of the same concentration without PAG, intraperitoneal injection) [h] | time the gel, tissues and organs, especially the liver, remained colored ([2]; in isotonic PAG solution (about 176 000 g/mol, 6% by weight), injected at 45° C. intraperitoneally, mice) | SMILES | extent of release from the gel ([1]; 10 mg in PAG 170 000 g/mol gel, 6% by mass in physiological serum, 37° C.) | "burst" release as percentage of the amount initially placed in the gel ([1]; at 1 hour, 10 mg in PAG 170 000 g/mol gel, 6% by mass in physiological serum, 37° C.) | dissolution in the same medium without gel ([1]; physiological serum, without gel) |
| --- | --- | --- | --- | --- | --- |
| – | – | CC(=O)[O-].CC(=O)[O-].[Co+2] [cobalt acetate] | gradual release until depletion is complete | less than 15% | dissolves instantaneously in its entirety |
| 24 | at least 52 hours | CN(C)c1ccc2nc3ccc(=[N+](C)C)cc-3sc2c1 [methylene blue] | – | – | – |
